The numbers were not newly measured in patent US20020090664A1, “Methods for measuring stress in mammals” (priority 2000, published 2002), which cites them from elsewhere.

The test system of this series is salivary cortisol. Conditions: adults exposed to the fragrance before the stressful event, compared with challenge without fragrance; Tanizawa, JP Patent No.11-19076.

`Cc1c[nH]c2ccccc12` [skatole]: the “effect of fragrance on stress induced release of cortisol (salivary cortisol levels)” value was “opposite effect”.
